# Experimental data from the kinase profiling compilation of Christmann-Franck et al. (2016).
# Experiments:
# Test in all cases: KINOMEscan competition binding
# Conditions in all cases: compound 10.0 µM
# [1] = biological target: ABL2 (human) (UniProt P42684)
# [2] = biological target: TAOK1 (human) (UniProt Q7L7X3)
# [3] = biological target: FES (human) (UniProt P07332)
# [4] = biological target: FGFR2 (human) (UniProt P21802)
# [5] = biological target: ACVR2B (human) (UniProt Q13705)
# [6] = biological target: BTK (human) (UniProt Q06187)
# [7] = biological target: INSRR (human) (UniProt P14616)
# [8] = biological target: SLK (human) (UniProt Q9H2G2)
# [9] = biological target: SIK3 (human) (UniProt Q9Y2K2)
# [10] = biological target: CDK15 (human) (UniProt Q96Q40)
# [11] = biological target: CaMK1 (human) (UniProt Q14012)
# [12] = biological target: PRKG1 (human) (UniProt Q13976)
# [13] = biological target: STK33 (human) (UniProt Q9BYT3)
# [14] = biological target: TNIK (human) (UniProt Q9UKE5)
# [15] = biological target: MAP3K11 (human) (UniProt Q16584)
# [16] = biological target: HUNK (human) (UniProt P57058)
# [17] = system: PIK3CA (human), P42336 [M1043I]
# [18] = biological target: DCLK3 (human) (UniProt Q9C098)
# [19] = biological target: NTRK2 (human) (UniProt Q16620)
# [20] = biological target: EPHB6 (human) (UniProt O15197)
# [21] = system: EGFR (human), P00533 [L858R]
# [22] = biological target: TSSK1B (human) (UniProt Q9BXA7)
# [23] = biological target: CLK4 (human) (UniProt Q9HAZ1)
# [24] = biological target: MYLK4 (human) (UniProt Q86YV6)
# [25] = biological target: TESK1 (human) (UniProt Q15569)
# [26] = biological target: ANKK1 (human) (UniProt Q8NFD2)
# [27] = biological target: PHKG2 (human) (UniProt P15735)
# [28] = biological target: GSK3B (human) (UniProt P49841)
# [29] = biological target: MAP3K7 (human) (UniProt O43318)
# [30] = biological target: DYRK2 (human) (UniProt Q92630)
# [31] = biological target: RPS6KA4 KD1 (human) (UniProt O75676)
# [32] = biological target: RIPK1 (human) (UniProt Q13546)
# [33] = biological target: JAK1 JH2 pseudokinase (human) (UniProt P23458)
# [34] = biological target: BMPR1A (human) (UniProt P36894)
# [35] = biological target: ERBB2 (human) (UniProt P04626)
# [36] = biological target: IKBKE (human) (UniProt Q14164)
# [37] = biological target: MAP2K5 (human) (UniProt Q13163)
# [38] = biological target: CDK8 (human) (UniProt P49336)
# [39] = biological target: TNK1 (human) (UniProt Q13470)
# [40] = biological target: IRAK3 (human) (UniProt Q9Y616)
# Sequence of ACVR2B (human) (Q13705 whole entry, looked up): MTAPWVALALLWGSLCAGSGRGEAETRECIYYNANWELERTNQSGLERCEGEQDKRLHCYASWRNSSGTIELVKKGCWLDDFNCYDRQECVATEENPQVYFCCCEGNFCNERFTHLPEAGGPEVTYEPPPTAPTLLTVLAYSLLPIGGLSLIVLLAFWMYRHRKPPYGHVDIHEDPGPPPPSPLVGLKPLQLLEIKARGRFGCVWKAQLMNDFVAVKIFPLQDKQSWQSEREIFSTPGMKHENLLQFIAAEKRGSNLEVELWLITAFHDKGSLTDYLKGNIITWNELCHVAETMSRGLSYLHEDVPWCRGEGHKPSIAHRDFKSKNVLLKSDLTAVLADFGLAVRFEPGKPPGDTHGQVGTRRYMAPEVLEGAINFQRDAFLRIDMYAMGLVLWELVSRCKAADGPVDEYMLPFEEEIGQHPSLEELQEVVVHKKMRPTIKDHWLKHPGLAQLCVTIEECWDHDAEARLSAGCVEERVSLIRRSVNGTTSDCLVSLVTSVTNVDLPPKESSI
# Sequence of MAP3K11 (human) (Q16584 whole entry, looked up): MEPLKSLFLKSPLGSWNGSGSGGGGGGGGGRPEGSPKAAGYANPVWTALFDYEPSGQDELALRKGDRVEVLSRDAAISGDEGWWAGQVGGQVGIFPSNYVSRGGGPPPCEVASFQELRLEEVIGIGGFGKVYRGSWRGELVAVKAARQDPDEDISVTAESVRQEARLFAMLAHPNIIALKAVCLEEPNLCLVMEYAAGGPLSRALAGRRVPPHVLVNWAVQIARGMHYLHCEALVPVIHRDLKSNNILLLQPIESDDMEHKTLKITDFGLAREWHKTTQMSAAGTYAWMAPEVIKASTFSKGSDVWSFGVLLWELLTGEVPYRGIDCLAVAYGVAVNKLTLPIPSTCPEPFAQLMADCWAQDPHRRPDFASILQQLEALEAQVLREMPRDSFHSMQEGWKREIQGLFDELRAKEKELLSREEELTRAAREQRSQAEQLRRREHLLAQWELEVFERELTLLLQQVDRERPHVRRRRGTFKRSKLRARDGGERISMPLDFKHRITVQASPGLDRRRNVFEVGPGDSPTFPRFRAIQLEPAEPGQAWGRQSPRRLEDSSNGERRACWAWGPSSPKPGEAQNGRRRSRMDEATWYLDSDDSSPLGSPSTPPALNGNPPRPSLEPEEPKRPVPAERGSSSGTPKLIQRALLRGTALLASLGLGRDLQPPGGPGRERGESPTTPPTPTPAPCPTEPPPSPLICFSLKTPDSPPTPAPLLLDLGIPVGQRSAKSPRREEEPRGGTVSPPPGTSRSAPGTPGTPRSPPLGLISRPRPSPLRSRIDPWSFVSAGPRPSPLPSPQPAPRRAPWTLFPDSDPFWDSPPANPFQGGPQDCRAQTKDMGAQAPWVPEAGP
# Sequence of STK33 (human) (Q9BYT3 whole entry, looked up): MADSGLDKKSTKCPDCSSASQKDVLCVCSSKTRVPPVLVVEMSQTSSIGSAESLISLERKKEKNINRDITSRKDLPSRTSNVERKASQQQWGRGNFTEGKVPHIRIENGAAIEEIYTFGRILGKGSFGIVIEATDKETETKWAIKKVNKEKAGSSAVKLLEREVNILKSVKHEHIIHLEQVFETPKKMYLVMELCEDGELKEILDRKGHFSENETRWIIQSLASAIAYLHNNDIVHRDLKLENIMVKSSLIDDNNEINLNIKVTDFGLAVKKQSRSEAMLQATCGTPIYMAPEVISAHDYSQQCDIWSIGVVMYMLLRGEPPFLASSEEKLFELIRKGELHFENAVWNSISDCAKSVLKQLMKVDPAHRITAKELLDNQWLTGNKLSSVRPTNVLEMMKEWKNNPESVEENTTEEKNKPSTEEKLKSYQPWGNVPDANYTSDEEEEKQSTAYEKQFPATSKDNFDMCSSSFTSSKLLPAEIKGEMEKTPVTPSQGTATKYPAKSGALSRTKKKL
# Sequence of TNK1 (human) (Q13470 whole entry, looked up): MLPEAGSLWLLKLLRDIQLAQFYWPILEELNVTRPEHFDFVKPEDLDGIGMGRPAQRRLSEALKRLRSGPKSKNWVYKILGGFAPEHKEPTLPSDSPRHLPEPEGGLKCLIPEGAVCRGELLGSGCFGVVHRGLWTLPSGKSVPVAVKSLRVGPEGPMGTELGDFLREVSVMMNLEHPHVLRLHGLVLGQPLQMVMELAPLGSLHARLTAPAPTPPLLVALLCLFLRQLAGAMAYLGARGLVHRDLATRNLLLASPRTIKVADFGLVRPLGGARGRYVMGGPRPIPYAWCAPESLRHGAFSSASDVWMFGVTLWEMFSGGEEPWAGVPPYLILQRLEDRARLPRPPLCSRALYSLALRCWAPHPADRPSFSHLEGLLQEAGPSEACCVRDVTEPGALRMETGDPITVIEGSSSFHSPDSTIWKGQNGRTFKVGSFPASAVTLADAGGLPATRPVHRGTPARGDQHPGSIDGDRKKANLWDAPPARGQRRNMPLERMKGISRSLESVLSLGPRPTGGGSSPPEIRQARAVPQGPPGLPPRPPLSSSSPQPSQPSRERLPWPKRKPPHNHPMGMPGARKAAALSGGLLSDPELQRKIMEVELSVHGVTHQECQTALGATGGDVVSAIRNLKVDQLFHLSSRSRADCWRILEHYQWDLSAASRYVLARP
# Sequence of PRKG1 (human) (Q13976 whole entry, looked up): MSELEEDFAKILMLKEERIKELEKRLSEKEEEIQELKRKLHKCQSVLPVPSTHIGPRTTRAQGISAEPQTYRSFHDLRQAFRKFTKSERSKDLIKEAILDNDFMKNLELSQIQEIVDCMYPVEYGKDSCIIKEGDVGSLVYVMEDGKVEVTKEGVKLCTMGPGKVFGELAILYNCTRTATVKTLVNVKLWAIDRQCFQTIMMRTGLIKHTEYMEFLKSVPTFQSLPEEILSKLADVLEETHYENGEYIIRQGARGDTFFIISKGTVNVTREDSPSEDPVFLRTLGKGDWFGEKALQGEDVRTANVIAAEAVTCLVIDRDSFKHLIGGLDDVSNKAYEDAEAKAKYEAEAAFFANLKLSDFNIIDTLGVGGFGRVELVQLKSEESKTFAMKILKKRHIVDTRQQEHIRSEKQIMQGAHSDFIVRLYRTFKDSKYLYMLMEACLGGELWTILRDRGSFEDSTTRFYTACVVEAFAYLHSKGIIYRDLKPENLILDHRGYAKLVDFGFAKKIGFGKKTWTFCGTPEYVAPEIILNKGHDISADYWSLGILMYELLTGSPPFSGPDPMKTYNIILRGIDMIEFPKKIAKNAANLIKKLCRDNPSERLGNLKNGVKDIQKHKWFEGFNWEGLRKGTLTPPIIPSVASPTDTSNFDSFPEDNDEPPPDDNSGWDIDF
# Sequence of SIK3 (human) (Q9Y2K2 whole entry, looked up): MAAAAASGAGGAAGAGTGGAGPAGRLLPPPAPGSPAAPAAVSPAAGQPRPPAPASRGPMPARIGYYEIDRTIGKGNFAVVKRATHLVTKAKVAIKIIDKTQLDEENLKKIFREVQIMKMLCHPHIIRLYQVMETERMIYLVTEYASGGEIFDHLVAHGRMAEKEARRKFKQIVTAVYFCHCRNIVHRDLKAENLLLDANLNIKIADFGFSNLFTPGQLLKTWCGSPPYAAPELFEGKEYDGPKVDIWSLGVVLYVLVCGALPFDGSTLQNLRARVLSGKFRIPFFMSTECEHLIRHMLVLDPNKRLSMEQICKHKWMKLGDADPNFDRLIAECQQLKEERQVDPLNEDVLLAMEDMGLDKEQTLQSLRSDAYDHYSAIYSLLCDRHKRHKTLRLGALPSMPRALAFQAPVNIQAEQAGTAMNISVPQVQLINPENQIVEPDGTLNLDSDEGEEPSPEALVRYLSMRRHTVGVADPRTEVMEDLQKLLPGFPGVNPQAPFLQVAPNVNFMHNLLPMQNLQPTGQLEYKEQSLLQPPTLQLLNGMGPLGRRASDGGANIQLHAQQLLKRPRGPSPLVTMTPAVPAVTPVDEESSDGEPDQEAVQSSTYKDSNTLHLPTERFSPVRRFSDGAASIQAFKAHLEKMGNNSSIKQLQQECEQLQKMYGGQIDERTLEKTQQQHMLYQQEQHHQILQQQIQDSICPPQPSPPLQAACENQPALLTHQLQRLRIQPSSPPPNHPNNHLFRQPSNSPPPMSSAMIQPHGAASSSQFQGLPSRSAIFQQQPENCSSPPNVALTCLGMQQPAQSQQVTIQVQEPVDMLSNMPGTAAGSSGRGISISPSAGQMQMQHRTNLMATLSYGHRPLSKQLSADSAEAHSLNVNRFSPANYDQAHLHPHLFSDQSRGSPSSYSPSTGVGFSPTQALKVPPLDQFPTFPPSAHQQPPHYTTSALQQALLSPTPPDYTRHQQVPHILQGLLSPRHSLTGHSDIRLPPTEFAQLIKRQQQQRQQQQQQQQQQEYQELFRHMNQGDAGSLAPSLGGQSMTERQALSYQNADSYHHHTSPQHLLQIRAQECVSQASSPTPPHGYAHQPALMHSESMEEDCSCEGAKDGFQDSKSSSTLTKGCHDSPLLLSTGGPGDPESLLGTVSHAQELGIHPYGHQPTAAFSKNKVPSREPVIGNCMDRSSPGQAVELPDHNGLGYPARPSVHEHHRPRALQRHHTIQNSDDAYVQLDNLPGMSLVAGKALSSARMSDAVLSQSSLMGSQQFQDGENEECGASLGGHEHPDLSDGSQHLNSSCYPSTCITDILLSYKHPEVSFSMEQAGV
# Sequence of BMPR1A (human) (P36894 whole entry, looked up): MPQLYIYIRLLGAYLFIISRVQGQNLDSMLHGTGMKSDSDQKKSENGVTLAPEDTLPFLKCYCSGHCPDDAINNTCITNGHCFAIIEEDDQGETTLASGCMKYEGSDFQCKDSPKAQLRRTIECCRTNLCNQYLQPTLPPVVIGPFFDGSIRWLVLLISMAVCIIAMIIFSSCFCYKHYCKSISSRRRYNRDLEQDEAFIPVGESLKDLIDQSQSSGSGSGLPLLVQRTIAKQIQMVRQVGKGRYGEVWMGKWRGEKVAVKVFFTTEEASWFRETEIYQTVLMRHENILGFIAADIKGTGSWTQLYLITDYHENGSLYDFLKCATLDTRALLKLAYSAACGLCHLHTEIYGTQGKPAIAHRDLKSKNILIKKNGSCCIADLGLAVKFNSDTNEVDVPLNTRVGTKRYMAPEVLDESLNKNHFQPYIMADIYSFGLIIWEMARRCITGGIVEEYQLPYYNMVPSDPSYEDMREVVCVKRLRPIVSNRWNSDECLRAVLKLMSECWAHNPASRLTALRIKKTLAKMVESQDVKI
structure (smiles),measurement,setting,value
CC1=C(C(=O)Nc2cc3cn[nH]c3cc2F)C(c2ccc(C(F)(F)F)cc2)CC(=O)N1 (stereo not given),"kinase still bound, per cent of control",[1],86%
same,"kinase still bound, per cent of control",[2],53%
same,"kinase still bound, per cent of control",[3],95%
same,"kinase still bound, per cent of control",[4],95%
same,"kinase still bound, per cent of control",[5],96%
same,"kinase still bound, per cent of control",[6],14%
same,"kinase still bound, per cent of control",[7],99%
same,"kinase still bound, per cent of control",[8],100%
same,"kinase still bound, per cent of control",[9],94%
same,"kinase still bound, per cent of control",[10],84%
same,"kinase still bound, per cent of control",[11],93%
same,"kinase still bound, per cent of control",[12],15%
same,"kinase still bound, per cent of control",[13],36%
same,"kinase still bound, per cent of control",[14],100%
same,"kinase still bound, per cent of control",[15],100%
same,"kinase still bound, per cent of control",[16],100%
same,"kinase still bound, per cent of control",[17],93%
same,"kinase still bound, per cent of control",[18],70%
same,"kinase still bound, per cent of control",[19],76%
same,"kinase still bound, per cent of control",[20],68%
same,"kinase still bound, per cent of control",[21],90%
same,"kinase still bound, per cent of control",[22],98%
same,"kinase still bound, per cent of control",[23],100%
same,"kinase still bound, per cent of control",[24],88%
same,"kinase still bound, per cent of control",[25],92%
same,"kinase still bound, per cent of control",[26],97%
same,"kinase still bound, per cent of control",[27],92%
same,"kinase still bound, per cent of control",[28],89%
same,"kinase still bound, per cent of control",[29],78%
same,"kinase still bound, per cent of control",[30],100%
same,"kinase still bound, per cent of control",[31],98%
same,"kinase still bound, per cent of control",[32],84%
same,"kinase still bound, per cent of control",[33],100%
same,"kinase still bound, per cent of control",[34],17%
same,"kinase still bound, per cent of control",[35],71%
same,"kinase still bound, per cent of control",[36],77%
same,"kinase still bound, per cent of control",[37],71%
same,"kinase still bound, per cent of control",[38],79%
same,"kinase still bound, per cent of control",[39],33%
same,"kinase still bound, per cent of control",[40],85%
